Tests used:
[1] = system: rats with experimental insulin-dependent diabetes mellitus; conditions: intravenous morphine; diabetic rats; cited from earlier work
Male Wistar rats = test: Sedation: resting time in open field activity monitor; type: in vivo, rat
[2] = system: diabetic neuropathic rats; test: Streptozotocin diabetic neuropathic pain model (Example 1): noxious electrical current, tail flick latency, paw pressure; type: in vivo, rat
[3] = system: diabetic neuropathic male Wistar rats; test: Paw pressure (Randall Selitto) anti-nociception in rats with diabetic neuropathy (Example 2); type: in vivo, rat

## CN1CC[C@]23c4c5ccc(O)c4O[C@H]2[C@@H](O)C=C[C@H]3[C@H]1C5 [morphine]
[1]
  doses inducing dose-dependent anti-nociceptive effect relative to normal rats: twice as high

## COc1ccc2c3c1O[C@H]1C(=O)CC[C@@]4(O)[C@@H](C2)N(C)CC[C@]314 [oxycodone, reference compound]
Male Wistar rats; oxycodone 0.25 and 0.125 mg/kg intraperitoneally
  resting times compared with saline controls: decreased resting times
Male Wistar rats; oxycodone doses less than 1.0 mg/kg intraperitoneally, 30 minutes
  resting times compared with saline controls: did not increase resting times
[2]; oxycodone 250 μg/kg given alone
  anti-nociceptive action in diabetic neuropathic pain (ECT, TFL, paw pressure): minimally responsive

## CC(=O)OCC(=O)[C@H]1CC[C@H]2[C@@H]3CC[C@H]4C[C@H](O)CC[C@]4(C)[C@H]3C(=O)C[C@]12C [alphadolone acetate, 21-acetoxy-3α-hydroxy-5α-pregnane-11,20-dione]
Male Wistar rats; alphadolone acetate 60 mg/kg intraperitoneally
  resting times compared with saline controls: decreased resting times
Male Wistar rats; alphadolone acetate doses less than 100 mg/kg intraperitoneally, 30 minutes
  resting times compared with saline controls: did not increase resting times
[2]; alphadolone acetate 6 mg/kg ip given alone
  anti-nociceptive action in diabetic neuropathic pain (ECT, TFL, paw pressure): minimally responsive
[3]; alphadolone acetate 1.0 mg/kg given alone
  anti-nociception to paw pressure: ineffective
[3]; alphadolone acetate 10 mg/kg intraperitoneally (maximum dose), given alone
  reversal of the allodynia and hyperalgesia to paw pressure: 80%
[3]; alphadolone acetate given alone intraperitoneally, FIG. 9
  anti-nociceptive effects, dose response: dose related anti-nociceptive effects
[3]; alphadolone acetate given alone, the two dose response curves overlay each other
  potency in rats with diabetic neuropathy compared with normal weight matched rats: same potency
